Earlier results on four compounds are cited in paper PMC7211195 (Investigational New Drugs, 2019).

Read-outs that look alike come from different tables or passages of the source.

The conditions of series [1]: in rats, cited from earlier work.
The conditions of series [2]: cited from earlier work.
On the set-up of series [3]: method as in PMID 19276246. As to conditions: cited from earlier work; for increase in concentration in the brain: abcb1a/1b;abcg2(−/−) mice.
On the set-up of series [4]: method as in PMID 24113148. The following applies: cited from earlier work.

In the case of `COc1cc2c(cc1OC)CN(CCc1ccc(NC(=O)c3cccc4c(=O)c5cccc(OC)c5[nH]c34)cc1)CC2` [Elacridar, 9,10-dihydro-5-methoxy-9-oxo-N-[4-[2-(1,2,3,4-tetrahydro-6,7-dimethoxy-2-isoquinolinyl)ethyl]phenyl]-4-acridine-carboxamide], the “bound to plasma proteins” value in series [1] (ref 16) is recorded as 98.1 ± 1.7%; in series [1] (ref 30), 99.0 ± 0.6%.

With `C[C@@H](Oc1cc(-c2cnn(C3CCNCC3)c2)cnc1N)c1c(Cl)ccc(F)c1Cl` [crizotinib], in series [2] (5 mg/kg b.w., knockout vs WT mice), the “brain accumulation after 24 h, times greater” value is listed as “approximately 40 times”. In addition, the “higher BP exposure than WT mice” value in series [2] (abcb1a/1b(−/−) and abcb1a/1b;abcg2(−/−) mice, 5 mg/kg b.w.) is reported as “approximately 2 times”. In series [2] (abcb1a/1b(−/−) mice, dose increased ten-fold), the “brain accumulation, times greater than in WT mice” value was “approximately 70 times”.

Turning to `Cc1nc(Nc2ncc(C(=O)Nc3c(C)cccc3Cl)s2)cc(N2CCN(CCO)CC2)n1` [dasatinib], the “brain-to-plasma ratio increase with elacridar” value in series [3] (WT mice) is on record as 4.4 times. For the same compound, the results for the “increase in concentration in the brain” value in series [3] (intraperitoneal administration) and in series [3] (oral administration) were 22.7 times and 13.2 times, respectively.

With `CCN(CC)CCNC(=O)c1c(C)[nH]c(/C=C2\C(=O)Nc3ccc(F)cc32)c1C` [sunitinib], the DTIBT is 2.1 in series [4] (bcrp1(−/−) mice), 3.9 in series [4] (mdr1a/b(−/−) mice) and 48.9 in series [4] (mice with both knockout genes).
